The values below come from patent US9232796B2, “Herbicidal compositions comprising 4-amino-3-chloro-5-fluoro-6-(4-chloro-2-fluoro-3-methoxyphenyl) pyridine-2-carboxylic acid or a derivative thereof and acetyl-CoA carboxylase (ACCase) inhibitors” (DOW AGROSCIENCES LLC, priority 2012, dated 2016).

One experiment relates to ISCRU. The experiment in a line: Example I postemergence foliar-applied, greenhouse, direct seeded rice weeds. In kind it is in vivo, Ischaemum rugosum Salisb. From the text: (§1) Seeds or nutlets of the desired test plant species were planted in a soil matrix prepared by mixing a loam or sandy loam soil (e.g., 28.6 percent silt, 18.8 percent clay, and 52.6 percent sand, with a pH of about 5.8 and an organic matter content of about 1.8 percent) and calcareous grit in an 80 to 20 ratio. The soil matrix was contained in plastic pots with a volume of 1 quart and a surface area of 83.6 square centimeters (cm^2). When required to ensure good germination and healthy plants, a fungicide treatment and/or other chemical or physical treatment was applied. The plants were grown for 8-22 days in a greenhouse with an approximate 14 hr. photoperiod which was maintained at about 29° C. during the day and 26° C. during the night. Nutrients (Peters Excel® 15-5-15 5-Ca 2-Mg and iron chelate) were applied in the irrigation solution as needed and water was added on a regular basis. Supplemental lighting was provided with overhead metal halide 1000-Watt lamps as necessary. The plants were employed for testing when they reached the first through fourth true leaf stage.
(§2) Treatments consisted of the acid or esters of 4-amino-3-chloro-5-fluoro-6-(4-chloro-2-fluoro-3-methoxy-phenyl)pyridine-2-carboxylic acid (Compound A), each formulated as an SC (suspension concentrate), and various herbicidal components alone and in combination.
(§3) Other herbicidal components were applied on an acid equivalent (ae) or active ingredient (ai) basis and included acetyl coA carboxylase (ACCase)-inhibiting herbicides (cyclohexanedione and aryloxyphenoxypropionate chemical classes) cyhalofop-butyl formulated as Clincher® SF (285 gr ai/L EC), diclofop-methyl formulated as Hoelon® 3EC, fenoxaprop-p-ethyl+isoxadifen-ethyl formulated as RiceStar® HT (0.58 lb./gal EC), fenoxaprop-p-ethyl+mefenpyr diethyl formulated as Puma® IEC, metamifop formulated as Metamifop EC, haloxyfop-methyl formulated as Gallant Super®, fluazifop-p-butyl formulated as Fusilade® DX, quizalofop-p-ethyl formulated as Assure® II, profoxydim formulated as Aura® 20EC, clethodim applied as Intensity®, sethoxydim formulated as Poast®, and tralkoxydim formulated as Achieve®.
(§4) Treatment requirements were calculated based upon the rates being tested, the concentration of active ingredient or acid equivalent in the formulation, and a 12 mL application volume at a rate of 187 L/ha.
(§5) For treatments comprised of formulated compounds, measured amounts of compounds were placed individually in 25 mL glass vials and diluted in a volume of 1.25% (v/v) Agri-Dex® crop oil concentrated to obtain 12× stock solutions. […] Application solutions were prepared by adding an appropriate amount of each stock solution (e.g., 1 mL) and diluted to the appropriate final concentrations with the addition of 10 mL of an aqueous mixture of 1.25% (v/v) crop oil concentrate so that the final spray solutions contained 1.25+/−0.05% (v/v) crop oil concentrate.
All stock solutions and applications solutions were visually inspected for compound compatibility prior to application. […]
(§6) The treated plants and control plants were placed in a greenhouse as described above and watered by sub-irrigation to prevent wash-off of the test compounds. After approximately 3 weeks, the condition of the test plants as compared with that of the untreated plants was determined visually and scored on a scale of 0 to 100 percent where 0 corresponds to no injury or growth inhibition and 100 corresponds to complete kill. […]

The subject of another experiment is LEFCH. Description: Example II in-water applied, greenhouse, transplanted paddy rice weeds. In kind it is in vivo, Leptochloa chinensis (L.) Nees. As for the experimental part: Weed seeds or nutlets of the desired test plant species were planted in puddled soil (mud) prepared by mixing a shredded, non-sterilized mineral soil (50.5 percent silt, 25.5 percent clay, and 24 percent sand, with a pH of about 7.6 and an organic matter content of about 2.9 percent) and water at a 1:1 volumetric ratio. The prepared mud was dispensed in 365 mL aliquots into 16-ounce (oz.) non-perforated plastic pots with a surface area of 86.59 square centimeters (cm^2) leaving a headspace of 3 centimeters (cm) in each pot. Mud was allowed to dry overnight prior to planting or transplanting. Rice seeds were planted in Sun Gro MetroMix® 306 planting mixture, which typically has a pH of 6.0 to 6.8 and an organic matter content of about 30 percent, in plastic plug trays. Seedlings at the second or third leaf stage of growth were transplanted into 860 mL of mud contained in 32-oz. non-perforated plastic pots with a surface area of 86.59 cm^2 4 days prior to herbicide application. The paddy was created by filling the headspace of the pots with 2.5 to 3 cm of water. […] The plants were grown for 4-22 days in a greenhouse with an approximate 14 hr. photoperiod which was maintained at about 29° C. during the day and 26° C. during the night. Nutrients were added as Osmocote® (19:6:12, N:P:K+minor nutrients) at 2 g per 16-oz. pot and 4 g per 32-oz. pot. Water was added on a regular basis to maintain the paddy flood, and supplemental lighting was provided with overhead metal halide 1000-Watt lamps as necessary. The plants were employed for testing when they reached the first through fourth true leaf stage.
Treatments consisted of the acid or esters of 4-amino-3-chloro-5-fluoro-6-(4-chloro-2-fluoro-3-methoxy-phenyl)pyridine-2-carboxylic acid (compound A) each formulated as an SC (suspension concentrate) and various herbicidal components alone and in combination.
For formulated compounds, a measured amount was placed in an individual 100 or 200 mL glass vial and was dissolved in a volume of 1.25% (v/v) Agri-Dex® crop oil concentrate to obtain application solutions.
Applications were made by injecting with a pipetter appropriate amounts of the application solutions, individually and sequentially, into the aqueous layer of the paddy. Control plants were treated in the same manner with the solvent blank. Applications were made so that all treated plant material received the same concentrations of acetone and crop oil concentrate.
The treated plants and control plants were placed in a greenhouse as described above and water was added as needed to maintain a paddy flood. After approximately 3 weeks the condition of the test plants as compared with that of the untreated plants was determined visually and scored on a scale of 0 to 100 percent where 0 corresponds to no injury or growth inhibition and 100 corresponds to complete kill.
Colby's equation was used to determine the herbicidal effects expected from the mixtures (Colby, S. R. 1967. Calculation of the synergistic and antagonistic response of herbicide combinations. Weeds 15:20-22.).
The following equation was used to calculate the expected activity of mixtures containing two active ingredients, A and B: Expected=A+B−(A×B/100)

The next experiment relates to ECHCO. Description: Example I postemergence foliar-applied, greenhouse, direct seeded rice weeds. The experiment is classed as in vivo, Echinochloa colona (L.) Link.
From the text: as §1, §2, §3, §4, §5
All stock solutions and applications solutions were visually inspected for compound compatibility prior to application. Spray solutions were applied to the plant material with an overhead Mandel track sprayer equipped with a 8002E nozzles calibrated to deliver 187 L/ha over an application area of 0.503 m^2 at a spray height of 18 to 20 inches (46 to 50 cm) above average plant canopy height. Control plants were sprayed in the same manner with the solvent blank.
as §6

For `CCCCOC(=O)[C@@H](C)Oc1ccc(Oc2ccc(C#N)cc2F)cc1` [Cyhalofop-butyl, butyl(2R)-2-[4-(4-cyano-2-fluorophenoxy)phenoxy]propanoate, reference compound], in the experiment with ISCRU (140 gai/ha), the “Visual Weed Control (%) - 26 DAA ISCRU Obs” value was determined as 10%. In the experiment on LEFCH (180 gai/ha, in-water), the “Visual Weed Control (%) - 19 DAA LEFCH Obs” value was 75%.
For the compound `CCC/C(=N\OCC(C)Oc1ccc(Cl)cc1)C1=C(O)CC(C2CCCSC2)CC1=O` (centres unmarked) [Profoxydim, 2-[1-[[2-(4-chlorophenoxy)propoxy]imino]butyl]-3-hydroxy-5-(tetrahydro-2H-thiopyran-3-yl)-2-cyclohexen-1-one, reference compound], the “Visual Weed Control (%) - 20 DAA ECHCO Obs” value in the experiment with ECHCO (12.5 gai/ha) is 70%. Moreover, the “Visual Weed Control (%) - 21 DAA LEFCH Obs” value in the experiment on LEFCH (in-water, 25 gai/ha) is listed as 85%.
In the case of `COc1c(Cl)ccc(-c2nc(C(=O)O)c(Cl)c(N)c2F)c1F` [Compound A Acid, 4-amino-3-chloro-6-(4-chloro-2-fluoro-3-methoxyphenyl)-5-fluoropyridine-2-carboxylic acid], the “Visual Weed Control (%) - 26 DAA ISCRU Obs” value amounted to 37% in the experiment on ISCRU (8.75 gae/ha) and 63% with ISCRU (17.5 gae/ha). For the same compound, the “Visual Weed Control (%) - 20 DAA ECHCO Obs” value in the experiment with ECHCO (4.38 gae/ha) is on record as 40%; in the experiment with ECHCO (8.75 gae/ha), 60%; with ECHCO (17.5 gae/ha), 85%. The “Visual Weed Control (%) - 19 DAA LEFCH Obs” value in the experiment on LEFCH (42.4 gae/ha in-water) is on record as 10%. Besides, the “Visual Weed Control (%) - 21 DAA LEFCH Obs” value in the experiment with LEFCH (in-water, 17.5 gae/ha) is on record as 0%; in the experiment on LEFCH (in-water, 35 gae/ha) it was 20%.
As to `COc1c(Cl)ccc(-c2nc(C(=O)OCc3ccccc3)c(Cl)c(N)c2F)c1F` [Compound A Benzyl Ester, benzyl ester of 4-amino-3-chloro-5-fluoro-6-(4-chloro-2-fluoro-3-methoxy-phenyl)pyridine-2-carboxylic acid], the entries for the “Visual Weed Control (%) - 26 DAA ISCRU Obs” value in the experiment with ISCRU (8.75 gae/ha) and with ISCRU (17.5 gae/ha) were 18% and 33%, respectively. Also, the “Visual Weed Control (%) - 21 DAA ECHCO Obs” value came to 40% in the experiment with ECHCO (8 gae/ha), 70% in the experiment on ECHCO (16 gae/ha) and 95% with ECHCO (32 gae/ha).
